Test results: ChEMBL document CHEMBL1201862, “PubChem BioAssay data set” (2004)
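48-hour exposure; five concentrations; linearly interpolated endpoints. GI50 marks 50% less growth.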 Active and inactive are the calls of the source. Cut-off read from the data, not from the text of the source: active = GI50 up to about 1.1 µM and inactive = higher.

Tests used:
Test in all cases: growth of human tumour cells (NCI), 48 h
SK-MEL-5 = system: SK-MEL-5
SF-295 = system: SF-295
KM12 = system: KM12
IGROV-1 = system: IGROV-1
A498 = system: A498
SK-OV-3 = system: SK-OV-3
COLO 205 = system: COLO 205
SR = system: SR
SF-268 = system: SF-268
SK-MEL-2 = system: SK-MEL-2
SK-MEL-28 = system: SK-MEL-28
CCRF-CEM = system: CCRF-CEM
M14 = system: M14
DLD-1 = system: DLD-1
HCC 2998 = system: HCC 2998
NCI-H522 = system: NCI-H522
RPMI-8226 = system: RPMI-8226

Measured: GI50

COC(=O)c1cc(C(=O)OC)c(CC(=O)C(=O)NC2C3CC4CC(C3)CC2C4)nc1CC(=O)C(=O)NC1C2CC3CC(C2)CC1C3 (stereo unspecified)
inactive: SK-MEL-5 > 100 µM | SF-295 > 100 µM | KM12 > 100 µM | IGROV-1 > 100 µM | A498 > 100 µM | SK-OV-3 > 100 µM | COLO 205 > 100 µM | SR 8.69 µM | SF-268 > 100 µM | SK-MEL-2 > 100 µM | SK-MEL-28 > 100 µM | CCRF-CEM > 100 µM | M14 > 100 µM | DLD-1 > 100 µM | HCC 2998 > 100 µM | NCI-H522 > 100 µM | RPMI-8226 > 100 µM

Cc1cc2c(C)n(Cc3ccc(Cl)cc3Cl)nc2c(C#N)c1C
inactive: SK-MEL-5 85.3 µM | SF-295 18.2 µM | KM12 > 100 µM | IGROV-1 41 µM | A498 65.8 µM | SK-OV-3 19.1 µM | COLO 205 > 95.5 µM | SR > 100 µM | SF-268 32.3 µM | SK-MEL-2 > 61.4 µM | SK-MEL-28 36 µM | CCRF-CEM > 100 µM | M14 49 µM | DLD-1 > 100 µM | HCC 2998 > 100 µM | NCI-H522 38.5 µM | RPMI-8226 99.3 µM

O=C1c2ccccc2N2OC3(N4CCOCC4)CCCC3C12c1ccccc1 (stereo unspecified)
inactive: SK-MEL-5 > 100 µM | SF-295 > 100 µM | IGROV-1 > 100 µM | A498 > 100 µM | SK-OV-3 > 100 µM | COLO 205 > 100 µM | SR > 100 µM | SF-268 > 100 µM | SK-MEL-28 > 100 µM | CCRF-CEM > 100 µM | M14 > 100 µM | DLD-1 > 100 µM | HCC 2998 > 100 µM | NCI-H522 86.1 µM | RPMI-8226 > 100 µM

O=C(Nc1ccc(Br)cc1)C(=O)C(C(=O)c1ccc(Cl)c(Cl)c1)C1OC(=O)c2ccccc21 (stereo unspecified)
inactive: SF-295 15.2 µM | KM12 16.6 µM | IGROV-1 18.5 µM | A498 16.2 µM | SK-OV-3 35.1 µM | COLO 205 16.4 µM | SR 17.3 µM | SF-268 4.99 µM | SK-MEL-28 13.7 µM | CCRF-CEM 10 µM | M14 15.4 µM | DLD-1 18.3 µM | HCC 2998 14.6 µM | NCI-H522 18.3 µM | RPMI-8226 39.7 µM

Cc1csc2nc(-c3ccncc3)cn12
inactive: SK-MEL-5 > 100 µM | SF-295 > 100 µM | KM12 > 100 µM | IGROV-1 > 100 µM | A498 > 100 µM | SK-OV-3 > 100 µM | COLO 205 > 45.5 µM | SR 24.3 µM | SF-268 > 69.7 µM | SK-MEL-2 > 100 µM | SK-MEL-28 > 100 µM | CCRF-CEM > 42.1 µM | M14 > 68.2 µM | DLD-1 > 63.1 µM | HCC 2998 > 100 µM | NCI-H522 > 82.2 µM | RPMI-8226 > 45.1 µM
